{
  "source": "patent US20150246888A1",
  "about": "“ENOYL REDUCTASE INHIBITORS WITH ANTIBACTERIAL ACTIVITY” (priority 2012, published 2015)",
  "key": {"MRSA (ATCC number 43300)": {"system": "MRSA (ATCC number 43300)", "experiment": "microbe, parasite or virus in culture", "assay_type": "cell-based, methicillin-resistant Staphylococcus aureus", "conditions": "Staphylococcus aureus"}, "[1]": {"system": "B. anthracis, ΔANR strain", "experiment": "microbe, parasite or virus in culture", "assay_type": "cell-based", "conditions": "Bacillus anthracis"}, "S. aureus membrane": {"system": "S. aureus membrane", "experiment": "Membrane depolarization as a function of time", "assay_type": "cell-based"}, "FtuFabI": {"target": "FtuFabI (Francisella tularensis subsp. tularensis, UniProt Q5NGQ3)", "sequence (Q5NGQ3 1-260 limits assumed)": "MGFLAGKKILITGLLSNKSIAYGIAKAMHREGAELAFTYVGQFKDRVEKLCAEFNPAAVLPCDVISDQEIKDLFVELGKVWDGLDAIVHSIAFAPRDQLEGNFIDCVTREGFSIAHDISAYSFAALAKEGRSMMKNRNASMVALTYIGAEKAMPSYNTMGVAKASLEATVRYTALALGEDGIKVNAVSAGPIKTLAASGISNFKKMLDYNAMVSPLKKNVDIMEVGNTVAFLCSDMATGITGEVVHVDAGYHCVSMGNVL", "experiment": "biochemical", "set-up": "species or system F. tularensis subsp. tularensis Schu4"}, "[2]": {"system": "E. coli TolC-, an efflux defective mutant", "experiment": "microbe, parasite or virus in culture", "assay_type": "cell-based", "conditions": "Escherichia coli"}, "[3]": {"system": "S. aureus (ATCC number 29213)", "experiment": "microbe, parasite or virus in culture", "assay_type": "cell-based"}, "[4]": {"system": "E. coli (BW251113 strain)", "experiment": "microbe, parasite or virus in culture", "assay_type": "cell-based", "conditions": "Escherichia coli"}, "[5]": {"system": "F. tularensis, strain Utah 112", "experiment": "microbe, parasite or virus in culture", "assay_type": "cell-based", "conditions": "Francisella tularensis, UTAH112"}, "S. aureus": {"system": "S. aureus", "experiment": "Cell viability as a function of time (measured with depolarization)", "assay_type": "cell-based"}, "FabI": {"target": "FabI (Francisella tularensis subsp. tularensis, UniProt Q5NGQ3)", "sequence (Q5NGQ3 1-260 limits assumed)": "as above", "experiment": "biochemical", "set-up": "species or system F. tularensis subsp. tularensis Schu4"}},
  "note": "Read-outs that look alike come from different tables or passages of the source.",
  "data": [
    {"smiles": "CC(c1ccc(Cl)c(Cl)c1)n1cnc2cc3c(cc21)CCCC3", "note": "(stereo not shown) [Compound 4, 1-(1-(3,4-dichlorophenyl)ethyl)-5,6,7,8-tetrahydro-1H-naphtho[2,3-d]imidazole]", "values": [
      {"measurement": "MBC", "setting": "MRSA (ATCC number 43300)", "value": 25, "unit": "µg/mL"},
      {"measurement": "MIC", "setting": "MRSA (ATCC number 43300)", "value": 3.1, "unit": "µg/mL"},
      {"measurement": "MBC", "setting": "[1]", "value": 3.1, "unit": "µg/mL"},
      {"measurement": "MIC", "setting": "[1]", "value": 3.1, "unit": "µg/mL"},
      {"measurement": "Depolarization (done at 2X MIC)", "setting": "S. aureus membrane", "value": "Initially depolarizing (in first 60 min) but cells ‘recover’ and regain polarization compared to control with no compound"},
      {"measurement": "IC50", "setting": "FtuFabI", "value": 630, "unit": "nM"},
      {"measurement": "Ki", "setting": "FtuFabI", "value": 510, "unit": "nM"},
      {"measurement": "MBC", "setting": "[2]", "value": "> 25", "unit": "µg/mL"},
      {"measurement": "MIC", "setting": "[2]", "value": 3.1, "unit": "µg/mL"},
      {"measurement": "MIC", "setting": "[3]", "value": 3.1, "unit": "µg/mL"},
      {"measurement": "MBC", "setting": "[3]; Staphylococcus aureus", "value": 25, "unit": "µg/mL"},
      {"measurement": "MIC", "setting": "[3]; Staphylococcus aureus", "value": 3.1, "unit": "µg/mL"},
      {"measurement": "MIC", "setting": "[4]", "value": "> 12.5", "unit": "µg/mL"},
      {"measurement": "MBC", "setting": "[5]", "value": 25, "unit": "µg/mL"},
      {"measurement": "MIC", "setting": "[5]", "value": 3.1, "unit": "µg/mL"},
      {"measurement": "Cell viability (done at 2X MIC)", "setting": "S. aureus", "value": "Clearly bacteriostatic"},
      {"measurement": "Ki", "setting": "FabI", "value": "570 ± 140", "unit": "nM"}
    ]},
    {"smiles": "COc1ccc(Cn2cnc3cc4c(cc32)CCCC4)cc1C", "note": "[Compound 9, 1-(4-methoxy-3-methylbenzyl)-5,6,7,8-tetrahydro-1H-naphtho[2,3-d]imidazole]", "values": [
      {"measurement": "MIC", "setting": "MRSA (ATCC number 43300)", "value": 12.5, "unit": "µg/mL"},
      {"measurement": "MBC", "setting": "[1]", "value": 6.3, "unit": "µg/mL"},
      {"measurement": "MIC", "setting": "[1]", "value": 6.3, "unit": "µg/mL"},
      {"measurement": "Depolarization (done at 2X MIC)", "setting": "S. aureus membrane", "value": "Initially depolarizing (in first 60 min) but cells ‘recover’ and regain polarization compared to control with no compound"},
      {"measurement": "IC50", "setting": "FtuFabI; read-out: IC50", "value": 140, "unit": "nM"},
      {"measurement": "IC50", "setting": "FtuFabI; read-out: IC50, Inhibition of FabI", "value": 140, "unit": "nM"},
      {"measurement": "Ki", "setting": "FtuFabI; read-out: Ki^2 (Calculated using the Cheng-Prusoff Equation)", "value": 110, "unit": "nM"},
      {"measurement": "MBC", "setting": "[2]", "value": 9.4, "unit": "µg/mL"},
      {"measurement": "MIC", "setting": "[2]", "value": 4.7, "unit": "µg/mL"},
      {"measurement": "MIC", "setting": "[3]", "value": 6.3, "unit": "µg/mL"},
      {"measurement": "MBC", "setting": "[3]; Staphylococcus aureus", "value": 25, "unit": "µg/mL"},
      {"measurement": "MIC", "setting": "[3]; Staphylococcus aureus", "value": 6.3, "unit": "µg/mL"},
      {"measurement": "MIC", "setting": "[4]", "value": "> 12.5", "unit": "µg/mL"},
      {"measurement": "MBC", "setting": "[5]", "value": 6.3, "unit": "µg/mL"},
      {"measurement": "MIC", "setting": "[5]", "value": 3.1, "unit": "µg/mL"},
      {"measurement": "Cell viability (done at 2X MIC)", "setting": "S. aureus", "value": "Clearly bacteriostatic"},
      {"measurement": "Ki", "setting": "FabI; read-out: Ki^1 (Experimental Ki)", "value": "130 ± 10", "unit": "nM"}
    ]}
  ]
}
